According to US11566007B2, “Ras inhibitors” (Revolution Medicines, Inc., priority 2019, dated 2023):

Legend:
[1] = target: K-Ras G13C (Homo sapiens (Human), UniProt P01116+P62937, G13C); test: Ras-Raf (BRAF RBD) disruption / FRET / MOA assay, KRAS G13C; assay type: biochemical; details: KRAS G13C; Ras-Raf disruption/FRET/MOA assay; read-out: IC50* KRAS G13C FRET data
Outline: (§1)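 A 10-point, 3-fold dilution series topping at 30 μM final was incubated 3 h at 25° C with the Ras/cyclophilin A/BRAF RBD mixture.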

[2] = target: KRAS WT (Homo sapiens (Human), UniProt P01116+P62937); test: Ras-Raf (BRAF RBD) disruption / FRET / MOA assay, KRAS WT; assay type: biochemical; details: read-out: IC50* KRAS WT FRET data
Sequence of KRAS WT (P01116-2 other isoform, or with tags, fused parts or gaps): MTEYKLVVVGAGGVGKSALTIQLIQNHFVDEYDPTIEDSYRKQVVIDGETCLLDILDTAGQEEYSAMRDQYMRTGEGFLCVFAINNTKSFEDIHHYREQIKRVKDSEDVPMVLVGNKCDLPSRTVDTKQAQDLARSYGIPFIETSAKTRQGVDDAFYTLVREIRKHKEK
Sequence of KRAS WT (P62937 whole entry): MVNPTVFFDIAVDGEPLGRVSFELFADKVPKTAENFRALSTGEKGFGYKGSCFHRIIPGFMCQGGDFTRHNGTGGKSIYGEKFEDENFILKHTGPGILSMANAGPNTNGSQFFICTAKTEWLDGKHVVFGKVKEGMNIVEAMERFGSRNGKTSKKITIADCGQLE
Outline: as §1

[3] = target: KRAS Q61H (Homo sapiens (Human), UniProt P01116+P62937, Q61H); test: Ras-Raf (BRAF RBD) disruption / FRET / MOA assay, KRAS Q61H; assay type: biochemical; details: Ras-Raf disruption/FRET/MOA assay; class symbols; read-out: KRAS Q61H FRET data IC50
Sequence of KRAS Q61H (P01116-2 other isoform, or with tags, fused parts or gaps Q61H): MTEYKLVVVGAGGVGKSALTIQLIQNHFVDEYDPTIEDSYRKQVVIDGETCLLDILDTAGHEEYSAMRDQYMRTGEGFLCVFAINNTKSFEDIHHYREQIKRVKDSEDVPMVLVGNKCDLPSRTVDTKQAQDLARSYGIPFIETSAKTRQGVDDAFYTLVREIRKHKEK
Sequence of KRAS Q61H (P62937 whole entry): as the sequence (P62937 whole entry) above
Outline: (§2)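 Compounds (30 μM top final, 10-point 3-fold dilutions) incubated 3 h at 25° C with nucleotide-loaded Ras, cyclophilin A and BRAF RBD. Detection with 10 nM anti-His Eu-W1024 and 50 nM anti-GST allophycocyanin over another 1.5 h. Lowered TR-FRET ratio relative to DMSO wells gives IC50.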

[4] = target: NRAS Q61R (Homo sapiens (Human), UniProt P01111+P62937, Q61R); test: Ras-Raf (BRAF RBD) disruption / FRET / MOA assay, NRAS Q61R; assay type: biochemical; details: NRAS Q61R; Ras-Raf disruption/FRET/MOA assay; read-out: IC50* NRAS Q61R FRET data
Sequence of NRAS Q61R (P01111 whole entry Q61R): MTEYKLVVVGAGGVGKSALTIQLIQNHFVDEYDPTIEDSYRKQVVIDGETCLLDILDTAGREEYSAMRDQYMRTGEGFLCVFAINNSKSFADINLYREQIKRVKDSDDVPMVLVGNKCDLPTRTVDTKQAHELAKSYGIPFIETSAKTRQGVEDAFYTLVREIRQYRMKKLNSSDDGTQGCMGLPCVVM
Sequence of NRAS Q61R (P62937 whole entry): as the sequence (P62937 whole entry) above
Outline: as §2

[5] = test system: NCI-H358 (K-Ras G12C); test: CellTiter-Glo cell viability assay, NCI-H358; assay type: cell-based, human; details: Homo sapiens, NCI-H358, 120 h, NCI-H358, 5-day treatment; class symbols; read-out: Additional H358 Cell Viability assay data (K-Ras G12C, IC50)
Outline: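 Steps: compound dispensed into wells holding cells; incubation to day 5; ~30 min room-temperature equilibration; luminescence read; sample signal divided by mean DMSO signal, times 100; four-parameter logistic curve fit.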

[6] = target: KRAS G12D (Homo sapiens (Human), UniProt P01116+P62937, G12D); test: Ras-Raf (BRAF RBD) disruption / FRET / MOA assay, KRAS G12D; assay type: biochemical; details: Ras-Raf disruption/FRET/MOA assay; class symbols; read-out: KRAS G12D FRET data IC50
Sequence of KRAS G12D (P01116-2 other isoform, or with tags, fused parts or gaps G12D): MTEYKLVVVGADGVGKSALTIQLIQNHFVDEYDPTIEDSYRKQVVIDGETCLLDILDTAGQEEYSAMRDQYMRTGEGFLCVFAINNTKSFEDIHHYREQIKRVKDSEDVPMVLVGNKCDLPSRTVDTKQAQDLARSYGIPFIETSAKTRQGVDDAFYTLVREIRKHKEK
Sequence of KRAS G12D (P62937 whole entry): as the sequence (P62937 whole entry) above
Outline: as §1

[7] = target: NRAS Q61K (Homo sapiens (Human), UniProt P01111+P62937, Q61K); test: Ras-Raf (BRAF RBD) disruption / FRET / MOA assay, NRAS Q61K; assay type: biochemical; details: NRAS Q61K; Ras-Raf disruption/FRET/MOA assay; read-out: IC50* NRAS Q61K FRET data
Sequence of NRAS Q61K (P01111 whole entry Q61K): as the sequence (P01111 whole entry Q61R) above, with R61K counted along it
Sequence of NRAS Q61K (P62937 whole entry): as the sequence (P62937 whole entry) above
Outline: as §2

Sequence of K-Ras G13C (P01116-2 other isoform, or with tags, fused parts or gaps G13C): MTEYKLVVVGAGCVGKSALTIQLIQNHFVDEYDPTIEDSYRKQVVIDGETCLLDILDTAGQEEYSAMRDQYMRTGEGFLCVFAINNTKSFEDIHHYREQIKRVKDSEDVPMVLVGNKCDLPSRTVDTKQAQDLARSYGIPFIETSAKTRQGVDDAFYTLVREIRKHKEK
Sequence of K-Ras G13C (P62937 whole entry): as the sequence (P62937 whole entry) above

SMILES	IC50 [1]	IC50 [2]	IC50 [3]	IC50 [4]	IC50 [5]	IC50 [6]	IC50 [7]
CCn1c(-c2cccnc2[C@H](C)OC)c2c3cc(ccc31)-c1cccc(c1)C[C@H](NC(=O)[C@@H](COC1CN(C(=O)C#CC(C)(C)N(C)C3CC3)C1)C(C)C)C(=O)N1CCC[C@H](N1)C(=O)OCC(C)(C)C2 (atropisomer, axis not shown) [Example A613]	> 10 µM	> 10 µM	> 10 µM	> 10 µM	0.01 to 0.1 µM	> 10 µM	> 10 µM
CCn1c(-c2cccnc2[C@H](C)OC)c2c3cc(ccc31)N1CCC[C@@H](C[C@H](NC(=O)[C@H](C(C)C)N(C)C(=O)[C@H]3CCN(C(=O)C#CC(C)(C)N4CCC4)C3)C(=O)N3CCC[C@H](N3)C(=O)OCC(C)(C)C2)C1 (atropisomer, axis not shown) [Example A617]	> 10 µM	> 10 µM	> 10 µM	> 10 µM	0.01 to 0.1 µM	> 10 µM	> 10 µM
C=CC(=O)N1CCC[C@H]2CN(C(=O)N(C)[C@H](C(=O)N[C@H]3Cc4nc(cs4)-c4ccc5c(c4)c(c(-c4cccnc4[C@H](C)OC)n5CC)CC(C)(C)COC(=O)[C@@H]4CCCN(N4)C3=O)C(C)C)C[C@H]21 (atropisomer, axis not shown) [Example A618]	0.1 to 1 µM	0.1 to 1 µM	0.1 to 1 µM	0.1 to 1 µM	0.01 to 0.1 µM	1 to 10 µM	0.1 to 1 µM
CCn1c(-c2cccnc2[C@H](C)OC)c2c3cc(ccc31)-c1csc(n1)C[C@H](NC(=O)[C@H](C(C)C)N(C)C(=O)N1C[C@@H]3CN(C(=O)C#CC(C)(C)N(C)C)CC[C@@H]31)C(=O)N1CCC[C@H](N1)C(=O)OCC(C)(C)C2 (atropisomer, axis not shown) [Example A625]	0.1 to 1 µM	0.1 to 1 µM	0.1 to 1 µM	0.1 to 1 µM	0.01 to 0.1 µM	1 to 10 µM	0.1 to 1 µM
C=CC(=O)N(C)[C@H]1CN(C(=O)N(C)[C@H](C(=O)N[C@H]2Cc3nc(cs3)-c3ccc4c(c3)c(c(-c3cccnc3[C@H](C)OC)n4CC)CC(C)(C)COC(=O)[C@@H]3CCCN(N3)C2=O)C(C)C)C[C@@H]1F (atropisomer, axis not shown) [Example A632]	0.01 to 0.1 µM	0.1 to 1 µM	0.1 to 1 µM	0.1 to 1 µM	0.1 to 1 µM	1 to 10 µM	0.1 to 1 µM
C=CC(=O)N(C)[C@@H]1C[C@H](C)N(C(=O)N(C)[C@H](C(=O)N[C@H]2Cc3nc(cs3)-c3ccc4c(c3)c(c(-c3cccnc3[C@H](C)OC)n4CC)CC(C)(C)COC(=O)[C@@H]3CCCN(N3)C2=O)C(C)C)C1 (atropisomer, axis not shown) [Example A633]	0.1 to 1 µM	0.01 to 0.1 µM	0.01 to 0.1 µM	0.01 to 0.1 µM	0.01 to 0.1 µM	0.1 to 1 µM	0.01 to 0.1 µM
C=CC(=O)N(C)[C@@H]1C[C@@H](C)N(C(=O)N(C)[C@H](C(=O)N[C@H]2Cc3nc(cs3)-c3ccc4c(c3)c(c(-c3cccnc3[C@H](C)OC)n4CC)CC(C)(C)COC(=O)[C@@H]3CCCN(N3)C2=O)C(C)C)C1 (atropisomer, axis not shown) [Example A634]	0.1 to 1 µM	0.1 to 1 µM	0.1 to 1 µM	0.1 to 1 µM	0.01 to 0.1 µM	1 to 10 µM	0.1 to 1 µM
C=CC(=O)N1CCCC2(CCN(C(=O)N(C)[C@H](C(=O)N[C@H]3Cc4nc(cs4)-c4ccc5c(c4)c(c(-c4cccnc4[C@H](C)OC)n5CC)CC(C)(C)COC(=O)[C@@H]4CCCN(N4)C3=O)C(C)C)CC2)C1 (atropisomer, axis not shown) [Example A635]	0.1 to 1 µM	0.1 to 1 µM	0.1 to 1 µM	0.1 to 1 µM	0.1 to 1 µM	1 to 10 µM	0.1 to 1 µM
C=CC(=O)N1CC2(CCN2C(=O)N(C)[C@H](C(=O)N[C@H]2Cc3cccc(n3)-c3ccc4c(c3)c(c(-c3cccnc3[C@H](C)OC)n4CC)CC(C)(C)COC(=O)[C@@H]3CCCN(N3)C2=O)C(C)C)C1 (atropisomer, axis not shown) [Example A636]	0.1 to 1 µM	0.1 to 1 µM	0.1 to 1 µM	0.1 to 1 µM	< 0.01 µM	1 to 10 µM	0.1 to 1 µM
CCn1c(-c2cccnc2[C@H](C)OC)c2c3cc(ccc31)-c1csc(n1)C[C@H](NC(=O)C[C@@H](C)OC1CN(C(=O)C#CC(C)(C)N(C)C)C1)C(=O)N1CCC[C@H](N1)C(=O)OCC(C)(C)C2 (atropisomer, axis not shown) [Example A638]	1 to 10 µM	1 to 10 µM	1 to 10 µM	1 to 10 µM	0.01 to 0.1 µM	> 10 µM	1 to 10 µM
C=CC(=O)N1CC[C@H](C(=O)N(C)[C@H](C(=O)N[C@H]2Cc3cccc(c3)-c3ccc4c(c3)c(c(-c3cccnc3[C@H](C)OC)n4CC)CC(C)(C)COC(=O)[C@@H]3CCCN(N3)C2=O)[C@@H](C)C(F)(F)F)C1 (atropisomer, axis not shown) [Example A640]	0.1 to 1 µM	1 to 10 µM	0.1 to 1 µM	1 to 10 µM	0.01 to 0.1 µM	1 to 10 µM	1 to 10 µM
CCn1c(-c2cccnc2[C@H](C)OC)c2c3cc(ccc31)N1CCO[C@@H](C[C@H](NC(=O)[C@H](C(C)C)N(C)C(=O)C3(F)CCN(C(=O)/C=C/CN(C)C)CC3)C(=O)N3CCC[C@H](N3)C(=O)OCC(C)(C)C2)C1 (atropisomer, axis not shown) [Example A645]	0.1 to 1 µM	1 to 10 µM	1 to 10 µM	> 10 µM	0.01 to 0.1 µM	1 to 10 µM	> 10 µM
CC#CC(=O)N1CC2(CCN2C(=O)N(C)[C@H](C(=O)N[C@H]2Cc3nc(cs3)-c3ccc4c(c3)c(c(-c3cccnc3[C@H](C)OC)n4CC)CC(C)(C)COC(=O)[C@@H]3CCCN(N3)C2=O)C(C)C)C1 (atropisomer, axis not shown) [Example A655]	0.1 to 1 µM	0.1 to 1 µM	0.01 to 0.1 µM	0.01 to 0.1 µM	0.01 to 0.1 µM	1 to 10 µM	0.01 to 0.1 µM
C=CC(=O)N1CC[C@]2(CCN2C(=O)N(C)[C@H](C(=O)N[C@H]2Cc3nc(cs3)-c3ccc4c(c3)c(c(-c3cccnc3[C@H](C)OC)n4CC)CC(C)(C)COC(=O)[C@@H]3CCCN(N3)C2=O)C(C)C)C1 (atropisomer, axis not shown) [Example A662]	0.1 to 1 µM	0.1 to 1 µM	0.01 to 0.1 µM	0.1 to 1 µM	0.01 to 0.1 µM	0.1 to 1 µM	0.01 to 0.1 µM
CCn1c(-c2cccnc2[C@H](C)OC)c2c3cc(ccc31)-c1csc(n1)C[C@H](NC(=O)[C@H](C(C)C)N(C)C(=O)N1CCCOC13CN(C(=O)C#CC(C)(C)N(C)C)C3)C(=O)N1CCC[C@H](N1)C(=O)OCC(C)(C)C2 (atropisomer, axis not shown) [Example A666]	> 10 µM	> 10 µM	1 to 10 µM	> 10 µM	0.01 to 0.1 µM	> 10 µM	> 10 µM
C=CC(=O)N1CC[C@]2(COCCN2C(=O)N(C)[C@H](C(=O)N[C@H]2Cc3nc(cs3)-c3ccc4c(c3)c(c(-c3cccnc3[C@H](C)OC)n4CC)CC(C)(C)COC(=O)[C@@H]3CCCN(N3)C2=O)C(C)C)C1 (atropisomer, axis not shown) [Example A676]	1 to 10 µM	0.1 to 1 µM	0.01 to 0.1 µM	0.1 to 1 µM	0.01 to 0.1 µM	1 to 10 µM	0.1 to 1 µM
C=CC(=O)N1CC2(CCN(C(=O)N(C)[C@H](C(=O)N[C@H]3Cc4cccc(c4)-c4ccc5c(c4)c(c(-c4cccnc4[C@H](C)OC)n5CC)CC(C)(C)COC(=O)[C@@H]4CCCN(N4)C3=O)C(C)C)CC2)C1 (atropisomer, axis not shown) [Example A680]	0.01 to 0.1 µM	0.1 to 1 µM	0.1 to 1 µM	0.1 to 1 µM	0.01 to 0.1 µM	1 to 10 µM	0.1 to 1 µM
C=CC(=O)N1CC[C@@H]2[C@H](C1)CN2C(=O)N(C)[C@H](C(=O)N[C@H]1Cc2nc(cs2)-c2ccc3c(c2)c(c(-c2cccnc2[C@H](C)OC)n3CC)CC(C)(C)COC(=O)[C@@H]2CCCN(N2)C1=O)C(C)C (atropisomer, axis not shown) [Example A688]	0.1 to 1 µM	0.1 to 1 µM	0.1 to 1 µM	0.1 to 1 µM	0.1 to 1 µM	1 to 10 µM	0.1 to 1 µM
